Patent US12478608B2, “Use of slow-releasing hydrogen sulfide organic donor ADT-OH in the preparation of drugs for treating nervous system diseases” (SOOCHOW UNIVERSITY, priority 2021, dated 2025)

Experiments:
Assay type in all cases: cell-based, mouse
neural precursor cells [1] = assay: Differentiation of neural precursor cells into neurons (Tuj1 immunofluorescence) and axonal length; settings: ADT-OH 80 μmol/L; 5 days in differentiation medium
From the text: (§1) • (1) Adult ICR mice (male:female 2:1) were allowed to mate randomly. At 8:00 every night, the male and female mice were co-caged. […] On day 14.5 of pregnancy of the mice, neural precursor cells were extracted.
C57BL/6J mice at day 14.5 of pregnancy were anesthetized with 4% chloral hydrate by intraperitoneal injection. The abdominal cavity of the pregnant mice was opened using sterile surgical scissors and surgical forceps, the uterus of the pregnant mice was opened and the fetal brain was taken out. The fetal brain tissue in the subventricular zone was isolated under a stereomicroscope, digested with 0.05% trypsin in a water bath at 37° C. for 10 min, and then terminated with a neural precursor cell culture medium (containing DMEM-F12 medium 39.2 ml, 1×B27 800 ul, 0.2 mg/ml bEGF 4 ul, and 0.2 mg/ml FGF 8 ul), and then gently blown into individual cells. The cells were centrifuged at 700 rcf for 5 min and the supernatant was discarded. The neural precursor cell culture medium was added, and the cells were inoculated and cultured in a 24-well cell culture plate. […]
(§2) The cultured cells were fixed with 4% PFA for 15 min, and washed three times with 0.01 M PBS, and then immunofluorescence staining was performed with Tuj1, GFAP, MBP, and caspase3 antibodies. The plate was blocked with a DAPI-containing blocking agent (Vector Labs, H-1400), observed and photographed under a Zeiss fluorescence microscope. Tuj1-positive neurons GFAP-positive astrocytes, MBP-positive oligodendrocytes and DAPI-positive cells were counted using ImageJ and adobe photoshop, respectively. The rate of positive cells to all DAPI-positive cells was calculated. • (2) The cells were fixed with 4% PFA after 5 days of differentiation in the differentiation medium, and immunofluorescently stained with the neuron-specific antibody Tuj1. After staining, images were collected under a fluorescence microscope, and the rates of neurons to all DAPI-positive cells in each group were statistically calculated.

neural precursor cells [2] = assay: Differentiation of neural precursor cells into oligodendrocytes (MBP immunofluorescence); settings: ADT-OH 80 μmol/L; 5 days in differentiation medium
From the text: as §1
(§3) C57BL/6J mice at day 14.5 of pregnancy were anesthetized with 4% chloral hydrate by intraperitoneal injection. The abdominal cavity of the pregnant mice was opened using sterile surgical scissors and surgical forceps, the uterus of the pregnant mice was opened and the fetal brain was taken out. […]
as §2, with “After staining, images were collected under a fluorescence microscope, and the rates of neurons to all DAPI-positive cells in each group were statistically calculated.” left out
The rate of MBP positive cells to all DAPI-positive cells was statistically calculated.

neural precursor cells [3] = assay: Differentiation of neural precursor cells into astrocytes (GFAP immunofluorescence); settings: ADT-OH 80 μmol/L; 8 days in differentiation medium
From the text: as §1, §3
as §2, with “After staining, images were collected under a fluorescence microscope, and the rates of neurons to all DAPI-positive cells in each group were statistically calculated.” left out
The rate of GFAP positive cells to DAPI-positive cells was statistically calculated.

neural precursor cells [4] = assay: Apoptosis of neural precursor cells (caspase3 staining); settings: ADT-OH 80 μmol/L
Description: The isolated primary neural precursor cells were cultured for 3-4 days, and the neurospheres were blown into individual cells. and inoculated in a 24-well cell culture plate lined with adhesive glass discs. The cells were grown in neural precursor cell culture medium supplemented with ADT-OH (80 μmol/L) or control solute DMSO for 3 days, respectively, and then stained with apoptosis-specific antibody caspase3. Images were collected under a fluorescence microscope, and • the rate of caspase3 positive cells to all DAPI-positive cells were statistically calculated.

## Oc1ccc(-c2cc(=S)ss2)cc1 [ADT-OH, 5-(p-hydroxyphenyl)-1,2-dithione-3-thione]
Neural precursor cells [1]
  axons of neurons (axonal length) compared with the DMSO control group: longer axons
  differentiation into neurons (Tuj1-positive cells to all DAPI-positive cells) compared with the DMSO control group: more cells are differentiated into neurons
  rate of differentiation into neurons, increase compared with the DMSO control group: 57.69%
Neural precursor cells [2]
  differentiation into oligodendrocytes (MBP positive cells to all DAPI-positive cells) compared with the DMSO control group: more cells are differentiated into oligodendrocytes
  rate of differentiation into oligodendrocytes, increase compared with the DMSO control group: 87.5%
Neural precursor cells [3]
  differentiation into astrocytes (GFAP positive cells to DAPI-positive cells) compared with the DMSO control group: fewer cells in the ADT-OH group are differentiated into astrocytes
  rate of differentiation into astrocytes, reduction compared with the DMSO control group: 69.2%
Neural precursor cells [4]; 3 days
  apoptosis, reduction compared with the DMSO control group: 44.8%
Neural precursor cells [4]; 3 days in neural precursor cell culture medium
  apoptotic cells (caspase3 positive cells to all DAPI-positive cells) compared with the DMSO control group: fewer cells are apoptotic
